Ends that are not written are not given here.
What was measured:
[1] = Self-assembly in saline buffer (Tyndall path, TEM nanostructure); format: physicochemical
Source text: To verify our hypothesis, we utilized the self‐assembling factor (Acetyl‐Gly‐Phe‐Phe‐Tyr, Ac‐GFFY) to regulate the secondary conformation of A2 peptide (GGWLTRLLQTK) from p62 UBA domain binding with TRB3.^[ [16] ^] The self‐assembling factor Ac‐GFFY was covalently attached to the N‐terminal of peptide A2 to introduce Ac‐GFFY‐A2 (Figure 2a) as a modulator of the TRB3/p62 PPIs, non‐self‐assembling peptide A2 as the control group. Both of those peptide compounds were synthesized by standard solid phase peptide synthesis (SPPS), purified by reversed‐phase high‐performance liquid chromatography (HPLC), and identified through the high‐resolution mass spectrometry (HR‐MS, Figures S4 and S5, Supporting Information). The 0.5 wt% of peptide Ac‐GFFY‐A2 could observe an obvious “Tyndall path” in saline buffer (0.9% NaCl) after the heating‐cooling process (Figure S13, Supporting Information), compared with peptide A2 solution (0.5 wt%, saline buffer). The critical aggregation concentration (CAC) of those compounds was detected by dynamic light scattering. […] Furthermore, a transmission electron microscope (TEM) was used to observe the nanostructures formed by different compounds. Ac‐GFFY‐A2 could self‐assemble and form entangled nanofibers with a diameter of 8–12 nm (Figure 2b).
Transmission electron microscopy (TEM)
The samples (0.5 wt%, 10 μL) were loaded onto copper mesh coated with carbon.
After excess liquid was removed by a filter paper, 2% uranium acetate was used for dyeing the sample for 1 minute and the sample was dried overnight in a dryer. The samples were then imaged at 200 kV using a Tecnai G2 F20 system.
Circular dichroism (CD) spectrum
A BioLogic (MOS-450) system was used to record the circular dichroism spectrum.
Test wavelengths was in the range from 180 nm to 280 nm. […]
The CAC values were determined by dynamic light scattering (DLS). Solutions containing different concentration of compound in saline buffer were tested and the light scattering intensity was recorded for each concentration analyzed. […]

[2] = molecular target: bovine serum albumin (BSA) (Bos taurus, UniProt P02769); assay: Microscale thermophoresis (MST) binding to BSA (negative control protein); settings: BSA as negative control
Procedure: To determine the effects of the self‐assembly factor “Ac‐GFFY” on the secondary structure of the A2 peptide fragment, Circular dichroism (CD) and Fourier transform infrared (FTIR) measurements were performed. […] We subsequently assessed the binding affinity between Ac‐GFFY‐A2 or A2 peptides to the human TRB3 protein or bovine serum albumin (BSA) using microscale thermophoresis (MST) assay, with BSA serving as the control group. […] Therefore, we labeled the peptide with the fluorescence group 7‐nitro‐1,2,3‐benzoxadiazole (NBD) to determine the cellular uptake via flow cytometer. The NBD‐labeled peptide was incubated with both of normal and activated MRC‐5 cells for 4 h, respectively. […] Collectively, under the action of supramolecular self‐assembly, the peptide assemblies with stable secondary conformation can not only be effectively absorbed by MRC‐5 cells but also have the potential to interfere with TRB3/p62 PPIs.
HR‐MS (Varian QFT‐ESI) was used to characterize the molecular weight of compounds. TEM (JEM100CXII) was performed at the Tecnai G2 F20 system, operating at 100 kV. Circular dichroism (CD) spectrum was obtained by a BioLogic (MOS‐450) system. Dynamic light scattering was measured by a ZETAPALS/BI‐200SM (BROOKHAVEN) system. Confocal laser scanning microscopy (CLSM) was measured by Leica TCS SP‐5. Flow cytometry (BD, FACS) was used to detect the cellular uptake. […]

Chain of bovine serum albumin (BSA) (P02769 25-607): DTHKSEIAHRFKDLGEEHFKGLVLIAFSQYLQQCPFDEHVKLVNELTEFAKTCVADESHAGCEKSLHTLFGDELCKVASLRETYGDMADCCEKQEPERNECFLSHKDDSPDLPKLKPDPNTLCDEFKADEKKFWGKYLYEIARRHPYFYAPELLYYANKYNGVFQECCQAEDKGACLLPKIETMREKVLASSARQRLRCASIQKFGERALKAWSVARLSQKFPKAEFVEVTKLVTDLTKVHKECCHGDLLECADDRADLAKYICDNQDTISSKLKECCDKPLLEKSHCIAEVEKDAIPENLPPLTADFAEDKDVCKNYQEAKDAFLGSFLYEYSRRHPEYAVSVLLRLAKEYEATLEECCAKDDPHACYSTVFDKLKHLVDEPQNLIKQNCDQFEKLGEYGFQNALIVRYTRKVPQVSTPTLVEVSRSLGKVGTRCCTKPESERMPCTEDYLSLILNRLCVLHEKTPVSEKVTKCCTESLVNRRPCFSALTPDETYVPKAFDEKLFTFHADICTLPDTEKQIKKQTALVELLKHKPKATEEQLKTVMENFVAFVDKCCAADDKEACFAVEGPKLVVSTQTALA

Substance | Tyndall path ([1]; 0.5 wt% in saline buffer (0.9% NaCl) after heating-cooling process) | diameter of entangled nanofibers (TEM) ([1]; 0.5 wt% in saline buffer after heating-cooling process, TEM) | binding with BSA [2] | nanostructure in TEM image ([1]; 0.5 wt%, saline buffer, TEM)
Ac-GFFYGGWLTRLLQTK-OH [Ac-GFFY-A2] | obvious | 8–12 nm | no binding | –
GGWLTRLLQTK-OH [A2, reference compound] | – | – | no binding | amorphous structures
